These results are taken from patent US10700298B2, “OLED display panel and electronic device comprising the same” (SHANGHAI TIANMA AM-OLED CO., LTD., priority 2016, dated 2020).

Molecules are shown by their SMILES. Values after ≈ are worked out from the molar mass of the structure shown.

The first series can be described thus: Solubility of the hole transporting material in NMP. It is filed as physicochemical. As to conditions: N-methylpyrrolidone.
With `Cc1ccc(-c2ccc(N(c3ccc(-c4cccc(C)c4)cc3)c3ccc(-c4ccc(N(c5ccc(-c6ccccc6)cc5)c5ccc(-c6ccc(C)cc6)cc5)c5c4CCCC5)cc3)cc2)cc1` [Example 9], the “solubility in NMP” value came to 35 mg/mL (≈ 39.4 mM). As to `Cc1cccc(-c2ccc(N(c3ccc(-c4cc(C)c(N(c5ccc(-c6cccc(C)c6)c(C)c5)c5ccc(-c6cccc(C)c6)c(C)c5)c(C)c4)cc3)c3ccc(-c4cccc(C)c4)c(C)c3)cc2C)c1` [Example 2], the “solubility in NMP” value turned out to be 25 mg/mL (≈ 26.8 mM). For the compound `Cc1cc(N(c2ccc(-c3ccccc3)cc2)c2ccc(-c3cccc4c3CCCC4)cc2)ccc1-c1ccc(N(c2ccc(-c3ccccc3)cc2)c2ccc(-c3cccc4c3CCCC4)cc2)cc1` [Example 11], the “solubility in NMP” value amounted to 15 mg/mL (≈ 16.4 mM). In the case of `c1ccc(-c2ccc(N(c3ccc(-c4ccccc4)cc3)c3ccc(-c4ccc(N(c5ccc(-c6ccccc6)cc5)c5ccc(-c6ccccc6)cc5)c5c4CCCC5)cc3)cc2)cc1` [Comparative Example 3, reference compound], the “solubility in NMP” value worked out at 2.5 mg/mL (≈ 2.95 mM). On the same count and under the same terms, as for `c1ccc(-c2ccc(N(c3ccc(-c4ccccc4)cc3)c3ccc(-c4ccc(N(c5ccc(-c6ccccc6)cc5)c5ccc(-c6ccccc6)cc5)cc4)cc3)cc2)cc1` [Comparative Example 1, reference compound], the figure is 1.2 mg/mL (≈ 1.51 mM). `Cc1cccc(-c2ccc(N(c3ccc(-c4cccc(C)c4)cc3)c3ccc(-c4cc(C)c(N(c5ccc(-c6cccc(C)c6)cc5)c5ccc(-c6cccc(C)c6)cc5)c(C)c4)cc3)cc2)c1` [Example 1]: the “solubility in NMP” value stood at 15 mg/mL (≈ 17.1 mM). As for `CC(C)c1ccc(-c2ccc(N(c3ccc(-c4ccccc4)cc3)c3ccc(-c4ccc(N(c5ccc(-c6ccccc6)cc5)c5ccc(-c6ccc(C(C)C)cc6)cc5)c(C(C)C)c4)cc3)cc2)cc1` [Example 3], the “solubility in NMP” value worked out at 12 mg/mL (≈ 13.1 mM). The same measure, in the same setting: as for `Cc1cccc(-c2ccc(N(c3ccc(-c4cccc5c4CCCC5)cc3)c3ccc(-c4ccc(N(c5ccc(-c6cccc(C)c6)cc5)c5ccc(-c6cccc7c6CCCC7)cc5)c5c4CCCC5)cc3)cc2)c1` [Example 10], the figure is 19 mg/mL (≈ 19.3 mM); as for `Cc1cc(N(c2ccc(-c3ccccc3)cc2)c2ccc(-c3ccc(C(C)C)cc3)cc2)ccc1-c1ccc(N(c2ccc(-c3ccccc3)cc2)c2ccc(-c3ccc(C(C)C)cc3)cc2)cc1` [Example 4], 12 mg/mL (≈ 13.5 mM). Still for that read-out and setting: for `Cc1ccccc1-c1ccc(N(c2ccc(-c3ccccc3)cc2)c2ccc(-c3ccc(N(c4ccc(-c5ccccc5)cc4)c4ccc(-c5ccccc5C)c5c4CCCC5)c4c3CCCC4)cc2)c2c1CCCC2` [Example 12] the value was 21 mg/mL (≈ 21.4 mM).

Experiment in a further series: not given
The conditions noted are these: in words; material disclosed in CN103108859; cited from earlier work.
Consider `CC1(C)c2ccccc2-c2ccc(N(c3ccc4c(c3)C3(c5ccccc5-c5ccccc53)c3ccccc3-4)c3ccccc3-c3ccccc3)cc21`, for which the solubility result is given as “good”.
